Measured values from ChEMBL document CHEMBL1201862, “PubChem BioAssay data set” (2004).
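Briefly, cells in 96-well plates were exposed to five compound concentrations for 48 h, and endpoints were estimated by linear interpolation. GI50: concentration for 50% inhibition of growth.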 Activity calls are given as the source filed them. No stated cut-off is given here; in the data, active = GI50 up to about 1.1 µM and inactive = higher.

Tests used:
Assay in all cases: NCI-60 cell line screen, 48 h
[1] = test system: A549
[2] = test system: CCRF-CEM
[3] = test system: COLO 205
[4] = test system: HCC 2998
[5] = test system: HOP-92
[6] = test system: IGROV-1
[7] = test system: KM12
[8] = test system: MOLT-4
[9] = test system: NCI-H460
[10] = test system: OVCAR-4
[11] = test system: PC-3
[12] = test system: RPMI-8226
[13] = test system: RXF 393
[14] = test system: SF-295
[15] = test system: SF-539
[16] = test system: SK-MEL-28
[17] = test system: SK-MEL-2
[18] = test system: SK-OV-3
[19] = test system: SW-620
[20] = test system: K562

Measured: GI50

CCN(CC)CCn1c2cc3c(cc2c(=O)c2cccnc21)OCO3
inactive: [1] 5.11 µM | [2] 5.31 µM | [3] 2.85 µM | [4] 9.04 µM | [5] 6.95 µM | [6] 4.88 µM | [7] 5.94 µM | [8] 3.68 µM | [9] 3.06 µM | [10] 5.36 µM | [11] 7.43 µM | [12] 3.93 µM | [13] 5.86 µM | [14] 4.71 µM | [15] 4.92 µM | [16] 7.91 µM | [17] 9.91 µM | [18] 9.84 µM | [19] 4.26 µM

COC(=O)[C@@]12CC[C@]1(C(=O)OC)C1C(C)=CC(=O)O[C@@]12C (stereo not given in full)
inactive: [1] > 100 µM | [2] > 100 µM | [3] > 100 µM | [4] > 100 µM | [5] > 100 µM | [6] > 100 µM | [20] > 100 µM | [7] > 100 µM | [8] > 100 µM | [9] > 100 µM | [10] > 100 µM | [11] > 100 µM | [12] > 100 µM | [13] > 100 µM | [14] > 100 µM | [15] > 100 µM | [16] > 100 µM | [18] > 100 µM | [19] > 100 µM

COc1cc(C(=O)N(C(=S)OC23CC4CC(CC(C4)C2)C3)c2ccccc2)cc(OC)c1OC
inactive: [1] 26.1 µM | [2] 2.89 µM | [3] 16.4 µM | [4] 23.4 µM | [5] 21 µM | [20] 2.75 µM | [7] 26.5 µM | [8] 2.82 µM | [9] 27.1 µM | [10] 29.2 µM | [11] 22.6 µM | [13] 32.7 µM | [14] 22.1 µM | [15] 31.3 µM | [16] 30.5 µM | [17] 15.2 µM | [18] 25.8 µM | [19] 22.7 µM

CSC12c3cc(C)n(-c4ccccc4)c3CC(C)(C)CN1C(=O)C2Oc1ccccc1 (stereo not given)
inactive: [1] 11.7 µM | [2] 16.6 µM | [3] 30.5 µM | [4] 41.2 µM | [5] 7.66 µM | [6] > 100 µM | [20] 32.1 µM | [7] > 100 µM | [8] 10.2 µM | [9] 29.1 µM | [10] > 100 µM | [11] 35.2 µM | [12] 7.08 µM | [13] > 100 µM | [14] 8.18 µM | [15] > 100 µM | [16] 62.7 µM | [17] 72.8 µM | [19] 40.1 µM

COC(=O)[C@@H](NC(=O)N(CCC#N)CCCN(C(=O)N[C@H](Cc1ccccc1)C(=O)OC)c1ccccc1)C(C)C
inactive: [1] > 100 µM | [2] 85.1 µM | [3] > 100 µM | [4] 47.3 µM | [5] 29.9 µM | [6] 59.3 µM | [7] > 100 µM | [8] 23 µM | [10] 50.4 µM | [11] 81.8 µM | [12] 25.1 µM | [13] 95.9 µM | [14] > 100 µM | [15] > 100 µM | [16] 34.3 µM | [17] 40.6 µM | [18] > 100 µM | [19] > 100 µM

CC1(C)CCCC2(C)C3=C(CCC12)C(=O)OC3 (stereo not given)
inactive: [1] > 100 µM | [2] > 100 µM | [3] > 100 µM | [4] > 100 µM | [5] > 100 µM | [6] > 100 µM | [7] > 100 µM | [8] 18.3 µM | [10] 55.7 µM | [11] > 100 µM | [12] 19.6 µM | [13] 62.2 µM | [14] > 100 µM | [15] > 100 µM | [16] > 100 µM | [17] > 100 µM | [18] > 100 µM | [19] > 100 µM

CC1(C)CN(CC(=O)O)CC(Cc2ccc(OCC(=O)O)cc2)N(CC(=O)O)CC(C)(C)SS1 (stereo not given)
inactive: [1] > 100 µM | [3] > 100 µM | [4] > 100 µM | [5] > 100 µM | [6] > 100 µM | [20] > 100 µM | [7] > 100 µM | [8] > 100 µM | [9] > 100 µM | [10] > 100 µM | [11] > 100 µM | [12] > 100 µM | [13] > 100 µM | [14] > 100 µM | [15] > 100 µM | [16] > 100 µM | [17] > 100 µM | [18] > 100 µM | [19] > 100 µM
